Assay results taken from PMC8953385, “2-Styrylchromones: Cytotoxicity and Modulation of Human Neutrophils’ Oxidative Burst” (Pharmaceuticals, 2022).

Columns and labels:
[1] = Annexin V/PI flow cytometric assay of neutrophils’ viability; format: cell-based, human; details: human, isolated human neutrophils, pH 7.4, representative plot, Figure 4, read-out: Viable cells [annexin V (−)/PI (−)], lower left quadrant
From the text: (§1) Following the Declaration of Helsinki and the approval of patient-related procedures and protocols by the Ethics Committee of Centro Hospitalar do Porto, Portugal, venous blood was collected from healthy human blood donors, after informed consent. The blood was stored into K3EDTA vacuum tubes after antecubital venipuncture of the donors. In order to obtain the isolated neutrophils, the density gradient centrifugation method was applied, as previously reported, with modifications. In brief, in a 15 mL polypropylene tube, 3 mL of histopaque 1119 were added followed by 3 mL of histopaque 1077 and finally, 4.5 mL of the collected blood were slowly added. Each tube was centrifuged at 900× g at 20 °C for 30 min, with a medium acceleration and deceleration speed. Following centrifugation, the neutrophils’ portion was harvested, and PBS was added to double the volume. The neutrophils’ suspension was then centrifuged at 850× g at 4 °C for 5 min, using a maximum acceleration and deceleration speed. The supernatant was discarded, and the neutrophils’ pellet was resuspended in PBS and afterward milli-Q water was added to lyse the residual erythrocytes. The tube was gently homogenized and after a few minutes, 3% NaCl was added to restore isotony, and then centrifuged again at 850× g at 4 °C for 5 min, using a maximum acceleration and deceleration speed. The supernatant was discarded, and a neutrophils’ pellet was obtained. After isolation, the neutrophils’ pellet was resuspended in the incubation media, tris-glucose buffer (25 mM Trizma® base, 5.5 mM D-glucose, 140 mM NaCl, 1.26 mM CaCl2, 0.81 mM MgSO4, 5.37 mM KCl, pH = 7.4). Neutrophils’ suspension was kept on ice, under soft shaking, until use. The trypan blue exclusion method was used to determine cells’ yield and viability.
(§2) The effect of the studied 2-SC on neutrophils’ viability was assessed by flow cytometry, after simultaneous staining with FITC Annexin V and propidium iodide (PI) (Figure S1), as previously reported by our research group, with modifications. After isolation, neutrophils (1 × 10^6 cells/mL) were incubated with 2-SC (up to 100.00 μM) or DMSO for 40 min, at 37 °C, in a 48-well plate. At the end of incubation, the content of each well was transferred to conical microtubes and centrifuged at 400× g at 20 °C for 5 min. After discarding the supernatant, the neutrophils’ pellet was resuspended in PBS and centrifuged under the previous conditions. Once the supernatant was removed, the pellet was resuspended in 10× diluted binding buffer, and then PI and annexin V were added. This mixture was incubated in the dark at room temperature for 15 min, and finally, 10× diluted binding buffer was added. In a flow cytometer, the fluorescence signal, of at least 10,000 cells/sample, were collected in logarithmic mode and followed in channels 1 and 3. The green fluorescence corresponding to annexin V FITC was accompanied in channel 1 and plotted as a histogram of FL1 staining, whereas the fluorescence corresponding to PI was monitored in channel 3 and plotted in the same histogram but as FL3 staining. The collected data were analyzed with the BD Accuri™ C6 software. The data analysis was restricted to the neutrophils’ population. Thus, according to the light-scattering properties of neutrophils (in a forward versus side scatter plot), a polygon gate was drawn, where debris and other blood cells were excluded. The effect of 2-SC on neutrophils’ viability was expressed as a relative percentage of apoptotic and/or necrotic cells when compared to the control (without 2-SC).

human neutrophils = assay: as above; format: cell-based; details: for Higher 2-SC concentration that did not affect human neutrophils’ viability: annexin V/PI assay, 40 min incubation at 37 °C
From the text: as §1, §2

[2] = test system: human neutrophils’ oxidative burst; assay: Neutrophils’ oxidative burst, PMA stimulation, luminol chemiluminescence; format: cell-based; details: Homo sapiens, Neutrophil
From the text: as §1
The effect of 2-SC on the modulation of neutrophils’ oxidative burst was assessed after the stimulation of these cells with PMA by monitoring the oxidation of chemiluminescent probe, luminol, by the generated reactive species (Figure S2), according to a previously described methodology. Briefly, neutrophils (1 × 10^6 cells/mL) were pre-incubated with luminol (500.00 μM), and 2-SC (0.00–100.00 μM) or DMSO, at the final concentrations indicated. After this pre-incubation, at 37 °C for 5 min, PMA (160.00 nM) was added, and in turn, neutrophils’ stimulation was initiated. Kinetic readings were immediately initiated and followed for 40 min, at 37 °C, in a microplate reader. The arbitrary chemiluminescence value was taken at the peak of the curve, and the results were expressed as the inhibition percentage of luminol oxidation.
GraphPad Prism 6 software was used to plot the curves of percentage of inhibition versus concentrations of compound, from which the concentration that produces 50% of inhibition (IC50) was determined. GraphPad Prism 6 software was also used to perform all statistical analyses. […] In all cases, p-values < 0.05 were considered statistically significant. The results are expressed as mean ± standard error of the mean (SEM).

[3] = O2•−, cited from earlier work

Structure (SMILES) | viability at 40 min, 25 µM ([1]; 25.00 μM) [%] | viability at 40 min, 50 µM ([1]; 50.00 μM) [%] | Effect on total neutrophils’ population percentage (human neutrophils; 50.00 μM) | Induction of late apoptosis (human neutrophils; 50.00 μM) | Higher 2-SC concentration that did not affect human neutrophils’ viability (human neutrophils) [µM] | inhibition at 25 µM ([2]; 25.00 µM (highest tested concentration), read-out: Inhibitory activity (% ± SEM), neutrophils’ oxidative burst) [%] | Scavenging of reactive species ([3]; H2O2, HOCl, 1O2, •NO, ONOO−) | Scavenging activity of reactive species ([3]; 1O2, •NO and ONOO−) | IC50 ([2]; PMA 160.00 nM, luminol 500.00 μM, mean ± SEM, read-out: IC50, inhibition of human neutrophils’ oxidative burst) [µM]
O=c1cc(/C=C/c2ccccc2)oc2cc(O)cc(O)c12 [A4] | 88.4 | 63.8 | significantly affected the total neutrophils’ population percentage | induced late apoptosis | 25.00 | < 30 | – | – | –
O=c1cc(/C=C/c2ccc(O)cc2)oc2cccc(O)c12 [B2] | – | – | – | – | 6.25 | – | much less active or inactive | – | –
COc1ccc(/C=C/c2cc(=O)c3ccc(O)c(O)c3o2)cc1OC [C8] | – | – | – | – | 6.25 | – | – | good scavenging activity | 1.4 ± 0.2
